Experiments:
[1] = repeated oral administration; disclosed in Patent Document 2; cited from earlier work
[2] = disclosed in Patent Document 2; cited from earlier work
[3] = tested on: VEGF induced retinal vascular permeability promotion; test: VEGF induced rabbit retinal vascular permeability promotion model; format: in vivo; conditions: 0.5 mg/eye intravitreal in PEG 400; VEGF 2 months after administration; vitreous fluorescein 2 days after VEGF
Description: By using the VEGF induced rabbit retinal vascular permeability promotion model, usefulness of the polyethylene glycol 400 formulation of Compound A was evaluated. Incidentally, the VEGF has been reported to promote retinochoroidal vascular permeability by intravitreal administration (Invest Ophthalmol Vis Sci. 2013; 54(1):503-11.), and has generally been used for preparation of a pathological condition accompanied by retinal and choroidal vascular disorder (for example, diabetic retinopathy, diabetic macular edema, retinal vein occlusion, retinal artery occlusion, exudative age-related macular degeneration, etc.).
To 1.5 g of the present compound A was added 12 mL of polyethylene glycol 400 (NOF CORPORATION) and the mixture was stirred, and after confirming the dissolution thereof, a suitable amount of polyethylene glycol 400 was added to make the whole amount 15 mL. […]
After 2 days from the VEGF administration, 0.1 mL/kg of a 10% fluorescein solution was intravenously administered to rabbits. After 2 hours from administration of the fluorescein, the fluorescein concentration in the vitreous body was measured by fluorophotometry, and this was used as an index of the retinal vascular permeability.
Thereafter, according to Formula 1, an inhibition ratio (%) of the administered medicine to the retinal vascular permeability promotion caused by VEGF was calculated. […]

Structure (SMILES) | deposition of minerals in the stomach [1] | storage stability [2] | Inhibition ratio (%) (retinal vascular permeability) [3]
O=C(CO)Nc1cc(CSc2ncccc2C(=O)Nc2ccc(OC(F)(F)F)cc2)ccn1.O=S(=O)(O)c1ccccc1 [2-[[[2-[(hydroxyacetyl)amino]-4-pyridinyl]methyl]thio]-N-[4-(trifluoromethoxy)phenyl]-3-pyridinecaboxamide] | no deposition of minerals is recognized | excellent | –
O=C(CO)Nc1cc(CSc2ncccc2C(=O)Nc2ccc(OC(F)(F)F)cc2)ccn1 [Compound A, 2-[[[2-[(hydroxyacetyl)amino]-4-pyridinyl]methyl]thio]-N-[4-(trifluoromethoxy)phenyl]-3-pyridinecaboxamide] | – | – | 95.3%
